Source: PubChem BioAssay (NCI)
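1) Cells in 96-well plates. 2) Compound, 48 h, 5 concentrations. 3) Linear interpolation between surrounding doses. 4) Unreached endpoint = highest concentration. At the GI50, growth is halved. The concentration for full growth arrest is given as TGI.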

What was measured:
Assay in all cases: NCI-60 cell line screen, 48 h
[1] = system: 786-0 renal
[2] = system: A498 renal
[3] = system: A549 NSCLC
[4] = system: ACHN renal
[5] = system: BT-549 breast
[6] = system: CAKI-1 renal
[7] = system: CCRF-CEM leukemia
[8] = system: COLO 205 colon
[9] = system: DU-145 prostate
[10] = system: EKVX NSCLC
[11] = system: HCC-2998 colon
[12] = system: HCT-116 colon
[13] = system: HCT-15 colon
[14] = system: HL-60(TB) leukemia
[15] = system: HOP-62 NSCLC
[16] = system: HOP-92 NSCLC
[17] = system: HS 578T breast
[18] = system: HT29 colon
[19] = system: IGROV1 ovarian
[20] = system: K-562 leukemia
[21] = system: KM12 colon
[22] = system: LOX IMVI melanoma
[23] = system: M14 melanoma
[24] = system: MALME-3M melanoma
[25] = system: MCF7 breast
[26] = system: MDA-MB-231 breast
[27] = system: MOLT-4 leukemia
[28] = system: NCI-H226 lung
[29] = system: NCI-H23 lung
[30] = system: NCI-H460 lung
[31] = system: NCI-H522 lung
[32] = system: NCI/ADR-RES ovarian
[33] = system: OVCAR-3 ovarian
[34] = system: OVCAR-4 ovarian
[35] = system: OVCAR-5 ovarian
[36] = system: OVCAR-8 ovarian
[37] = system: PC-3 prostate
[38] = system: RPMI-8226 leukemia
[39] = system: RXF 393 renal
[40] = system: SF-268 CNS
[41] = system: SF-295 CNS
[42] = system: SF-539 CNS
[43] = system: SK-MEL-2 melanoma
[44] = system: SK-MEL-28 melanoma
[45] = system: SK-MEL-5 melanoma
[46] = system: SK-OV-3 ovarian
[47] = system: SN12C renal
[48] = system: SNB-19 CNS
[49] = system: SNB-75 CNS
[50] = system: SR leukemia
[51] = system: SW-620 colon
[52] = system: T-47D breast
[53] = system: TK-10 renal
[54] = system: U251 CNS
[55] = system: UACC-257 melanoma
[56] = system: UACC-62 melanoma
[57] = system: UO-31 renal

Compound: Nc1nc2cc(O)ccc2n2cc3c(F)cccc3c12
- GI50 [1]: 3.56 µM
- TGI [1]: > 100 µM
- GI50 [2]: 10.1 µM
- TGI [2]: > 100 µM
- GI50 [3]: 1.27 µM
- TGI [3]: > 100 µM
- GI50 [4]: 1.85 µM
- TGI [4]: > 100 µM
- GI50 [5]: 6.92 µM
- TGI [5]: > 100 µM
- GI50 [6]: 0.733 µM
- TGI [6]: > 93.1 µM
- GI50 [7]: 2.28 µM
- TGI [7]: > 100 µM
- GI50 [8]: 5.86 µM
- TGI [8]: > 100 µM
- GI50 [9]: 6.38 µM
- TGI [9]: > 100 µM
- GI50 [10]: 3.38 µM
- TGI [10]: > 100 µM
- GI50 [11]: > 20.4 µM
- TGI [11]: > 100 µM
- GI50 [12]: 0.724 µM
- TGI [12]: > 100 µM
- GI50 [13]: 0.62 µM
- TGI [13]: > 100 µM
- GI50 [14]: 1.23 µM
- TGI [14]: > 100 µM
- GI50 [15]: 2.14 µM
- TGI [15]: > 100 µM
- GI50 [16]: 2.43 µM
- TGI [16]: > 85.6 µM
- GI50 [17]: 3.68 µM
- TGI [17]: > 100 µM
- GI50 [18]: 4.46 µM
- TGI [18]: > 100 µM
- GI50 [19]: 1.67 µM
- TGI [19]: > 100 µM
- GI50 [20]: 0.447 µM
- TGI [20]: > 100 µM
- GI50 [21]: 0.654 µM
- TGI [21]: > 100 µM
- GI50 [22]: 1.02 µM
- TGI [22]: > 100 µM
- GI50 [23]: 1.24 µM
- TGI [23]: > 100 µM
- GI50 [24]: 3.78 µM
- TGI [24]: > 100 µM
- GI50 [25]: 1.26 µM
- TGI [25]: > 100 µM
- GI50 [26]: 4.74 µM
- TGI [26]: > 100 µM
- GI50 [27]: 1.51 µM
- TGI [27]: > 100 µM
- GI50 [28]: 2.97 µM
- TGI [28]: > 100 µM
- GI50 [29]: 3.91 µM
- TGI [29]: > 100 µM
- GI50 [30]: 0.402 µM
- TGI [30]: > 100 µM
- GI50 [31]: 1.22 µM
- TGI [31]: > 100 µM
- GI50 [32]: 0.964 µM
- TGI [32]: > 100 µM
- GI50 [33]: 6.21 µM
- TGI [33]: > 100 µM
- GI50 [34]: 6.81 µM
- TGI [34]: > 100 µM
- GI50 [35]: 9.85 µM
- TGI [35]: > 100 µM
- GI50 [36]: 3.47 µM
- TGI [36]: > 100 µM
- GI50 [37]: 3.67 µM
- TGI [37]: > 100 µM
- GI50 [38]: 3.37 µM
- TGI [38]: > 100 µM
- GI50 [39]: 1.75 µM
- TGI [39]: 26.8 µM
- GI50 [40]: 1.98 µM
- TGI [40]: > 100 µM
- GI50 [41]: 2.46 µM
- TGI [41]: > 100 µM
- GI50 [42]: 1.31 µM
- TGI [42]: > 100 µM
- GI50 [43]: 3.76 µM
- TGI [43]: > 100 µM
- GI50 [44]: 4.86 µM
- TGI [44]: > 100 µM
- GI50 [45]: 0.334 µM
- TGI [45]: > 100 µM
- GI50 [46]: 2.37 µM
- TGI [46]: > 100 µM
- GI50 [47]: 2.22 µM
- TGI [47]: > 100 µM
- GI50 [48]: 2.31 µM
- TGI [48]: > 100 µM
- GI50 [49]: 1.44 µM
- TGI [49]: 7.34 µM
- GI50 [50]: 0.462 µM
- TGI [50]: 32.8 µM
- GI50 [51]: 0.493 µM
- TGI [51]: > 100 µM
- GI50 [52]: 5.89 µM
- TGI [52]: > 100 µM
- GI50 [53]: > 20.9 µM
- TGI [53]: > 100 µM
- GI50 [54]: 2.64 µM
- TGI [54]: > 100 µM
- GI50 [55]: 4.37 µM
- TGI [55]: > 100 µM
- GI50 [56]: 1.23 µM
- TGI [56]: > 100 µM
- GI50 [57]: 0.917 µM
- TGI [57]: > 79.8 µM
